Source: paper PMC9285882, “A mass spectrometry‐based non‐radioactive differential radial capillary action of ligand assay (DRaCALA) to assess ligand binding to proteins” (Journal of Mass Spectrometry, 2022)

Key:
Type in all cases: biochemical
BcsE = BcsE (Escherichia coli, UniProt P37657); assay: DRaCALA, MALDI-TOF MS read-out; settings: cell lysate; 10 mM Tris pH 8.0, 100 mM NaCl, 5 mM MgCl2; room temperature
YcgR = target: T1, YcgR (Escherichia coli, UniProt P76010); assay: DRaCALA, MALDI-TOF MS read-out; settings: cell lysate; 10 mM Tris pH 8.0, 100 mM NaCl, 5 mM MgCl2; room temperature
T1 construct: cloned in pBAD30, expressed in E. coli Top10, whole cell lysate
T1 sequence (P76010 1-244): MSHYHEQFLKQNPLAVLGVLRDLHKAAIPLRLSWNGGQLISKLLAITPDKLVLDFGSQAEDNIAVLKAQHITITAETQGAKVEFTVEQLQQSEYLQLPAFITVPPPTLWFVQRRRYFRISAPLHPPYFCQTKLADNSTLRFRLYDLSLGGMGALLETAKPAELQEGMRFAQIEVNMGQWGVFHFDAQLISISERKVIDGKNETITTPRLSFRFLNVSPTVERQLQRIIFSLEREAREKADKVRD

YciRFec101 = target: T2, YciRFec101 (Escherichia coli, UniProt P77334); assay: DRaCALA, MALDI-TOF MS and […] read-out; settings: cell lysate; 10 mM Tris pH 8.0, 100 mM NaCl, 5 mM MgCl2 (MALDI) or MgSO4 (32P); room temperature; labelled compound in 32P assay
T2 construct: gene pdeR; full-length GGDEF/EAL protein, cloned in pBAD30, expressed in E. coli Top10, whole cell lysate
T2 sequence (P77334 whole entry): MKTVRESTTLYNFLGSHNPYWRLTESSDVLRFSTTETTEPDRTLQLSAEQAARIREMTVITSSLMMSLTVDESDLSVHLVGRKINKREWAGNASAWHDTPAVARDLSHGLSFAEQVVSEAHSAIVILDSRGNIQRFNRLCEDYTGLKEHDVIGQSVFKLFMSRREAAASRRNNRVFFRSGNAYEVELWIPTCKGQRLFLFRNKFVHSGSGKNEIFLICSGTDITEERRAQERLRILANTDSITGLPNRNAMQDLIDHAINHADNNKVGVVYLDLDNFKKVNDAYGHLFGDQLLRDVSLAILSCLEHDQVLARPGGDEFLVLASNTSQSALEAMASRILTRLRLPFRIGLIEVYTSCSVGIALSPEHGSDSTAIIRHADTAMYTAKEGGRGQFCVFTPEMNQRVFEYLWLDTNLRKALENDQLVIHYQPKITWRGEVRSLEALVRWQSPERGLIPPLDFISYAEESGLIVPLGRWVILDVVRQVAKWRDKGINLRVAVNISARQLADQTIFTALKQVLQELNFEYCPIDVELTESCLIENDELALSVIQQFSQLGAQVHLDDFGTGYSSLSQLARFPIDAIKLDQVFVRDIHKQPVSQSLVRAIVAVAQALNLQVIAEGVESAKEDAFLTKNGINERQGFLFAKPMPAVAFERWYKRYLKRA

Chain of BcsE (P37657 whole entry): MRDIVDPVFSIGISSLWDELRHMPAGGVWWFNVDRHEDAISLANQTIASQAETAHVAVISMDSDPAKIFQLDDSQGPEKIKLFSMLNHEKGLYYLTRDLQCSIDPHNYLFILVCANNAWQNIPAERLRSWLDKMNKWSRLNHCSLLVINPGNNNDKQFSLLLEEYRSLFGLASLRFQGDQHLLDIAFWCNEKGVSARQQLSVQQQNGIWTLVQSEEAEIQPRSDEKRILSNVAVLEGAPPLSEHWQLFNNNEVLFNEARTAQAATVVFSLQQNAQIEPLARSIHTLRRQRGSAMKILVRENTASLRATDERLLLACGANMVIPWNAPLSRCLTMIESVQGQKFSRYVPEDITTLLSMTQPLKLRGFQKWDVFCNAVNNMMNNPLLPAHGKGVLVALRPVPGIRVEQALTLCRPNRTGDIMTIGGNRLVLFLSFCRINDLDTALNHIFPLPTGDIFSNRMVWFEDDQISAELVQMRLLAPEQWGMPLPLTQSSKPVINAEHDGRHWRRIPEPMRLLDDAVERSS

Nc1nc2c(ncn2[C@@H]2O[C@@H]3COP(=O)(O)O[C@H]4[C@@H](O)[C@H](n5cnc6c(=O)[nH]c(N)nc65)O[C@@H]4COP(=O)(O)O[C@H]3[C@H]2O)c(=O)[nH]1 [cyclic di-GMP]
DRaCALA, MALDI-TOF MS read-out (BcsE): cell lysates expressing the cyclic di‐GMP receptors and incubated with cyclic di‐GMP showed higher counts
DRaCALA, MALDI-TOF MS read-out (YcgR): cell lysates expressing the cyclic di‐GMP receptors and incubated with cyclic di‐GMP showed higher counts
DRaCALA, MALDI-TOF MS and 32P read-out (YciRFec101): YciRFec101 showed increased binding to c‐di‐GMP, while mut1 and mut2 were near vector control
